Data as given in the supplement of paper PMC10307832.

Columns and labels:
Test in all cases: relative viability (nuclei count vs DMSO), 5 days (fraction); higher = more cells survive
GSK126 + AZD7762 = compound: CC[C@H](C)N1C=C(C2=C(C=C(C=C21)C3=CN=C(C=C3)N4CCNCC4)C(=O)NCC5=C(C=C(NC5=O)C)C)C [GSK126] + NC(=O)Nc1cc(-c2cccc(F)c2)sc1C(=O)N[C@H]1CCCNC1 [AZD7762] (partner 0.2 µM)
Summary of the method: (§1)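 Relative viability divides the nuclei count in treated wells by that in vehicle wells. Lung cancer cell lines were seeded in 1536-well plates, dosed by pin tool the next day, and fixed and stained after 5 days in one step with final 0.05% Triton X-100, 1% formaldehyde and 1 ug/ml Hoechst. Dosing was a single drug or a fixed anchor-drug dose plus five library-drug doses (not always all listed) in √10 steps, and values are medians of duplicate plates imaged at 4×.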

GSK126 + Dasatinib = compound: CC[C@H](C)N1C=C(C2=C(C=C(C=C21)C3=CN=C(C=C3)N4CCNCC4)C(=O)NCC5=C(C=C(NC5=O)C)C)C [GSK126] + Cc1nc(Nc2ncc(C(=O)Nc3c(C)cccc3Cl)s2)cc(N2CCN(CCO)CC2)n1 [Dasatinib] (partner 0.075 µM)
Summary of the method: as §1

Carboplatin + Olaparib = compound: C1CC(C1)(C(=O)O)C(=O)O.[NH2-].[NH2-].[Pt+2] [Carboplatin] + O=C(c1cc(Cc2n[nH]c(=O)c3ccccc23)ccc1F)N1CCN(C(=O)C2CC2)CC1 [Olaparib] (partner 8 µM)
Summary of the method: as §1

GSK126 + Pictilisib = compound: CC[C@H](C)N1C=C(C2=C(C=C(C=C21)C3=CN=C(C=C3)N4CCNCC4)C(=O)NCC5=C(C=C(NC5=O)C)C)C [GSK126] + CS(=O)(=O)N1CCN(Cc2cc3nc(-c4cccc5[nH]ncc45)nc(N4CCOCC4)c3s2)CC1 [Pictilisib] (partner 1 µM)
Summary of the method: as §1

Cell Line	relative viability (GSK126 + AZD7762; first compound 0.08 µM)	relative viability (GSK126 + AZD7762; first compound 0.253 µM)	relative viability (GSK126 + AZD7762; first compound 0.8 µM)	relative viability (GSK126 + AZD7762; first compound 2.53 µM)	relative viability (GSK126 + AZD7762; first compound 8 µM)	relative viability (GSK126 + Dasatinib; first compound 0.08 µM)	relative viability (GSK126 + Dasatinib; first compound 0.253 µM)	relative viability (GSK126 + Dasatinib; first compound 0.8 µM)	relative viability (GSK126 + Dasatinib; first compound 2.53 µM)	relative viability (GSK126 + Dasatinib; first compound 8 µM)	relative viability (Carboplatin + Olaparib; first compound 0.08 µM)	relative viability (Carboplatin + Olaparib; first compound 0.253 µM)	relative viability (Carboplatin + Olaparib; first compound 0.8 µM)	relative viability (Carboplatin + Olaparib; first compound 2.53 µM)	relative viability (Carboplatin + Olaparib; first compound 8 µM)	relative viability (GSK126 + Pictilisib; first compound 0.08 µM)	relative viability (GSK126 + Pictilisib; first compound 0.253 µM)	relative viability (GSK126 + Pictilisib; first compound 0.8 µM)	relative viability (GSK126 + Pictilisib; first compound 2.53 µM)	relative viability (GSK126 + Pictilisib; first compound 8 µM)
LC-2-ad	0.851	0.866	0.858	0.953	0.92	0.606	0.66	0.565	0.643	0.585	0.699	0.7	0.666	0.675	0.522	0.506	0.687	0.647	0.522	0.567
LCLC-97TM1	0.307	0.312	0.228	0.267	0.24	0.845	0.922	0.918	0.822	0.897	0.334	0.524	0.353	0.506	0.332	0.22	–	0.229	0.285	0.18
LCLC-103H	0.847	0.86	0.786	0.778	0.843	0.485	0.45	0.464	0.447	0.51	0.754	0.783	0.777	0.74	0.754	0.712	0.555	0.683	0.626	0.658
LK-2	0.402	0.364	0.401	0.623	0.293	0.361	0.336	0.196	0.41	0.259	0.743	0.702	0.726	0.65	0.844	0.772	0.54	0.637	0.658	0.486
LOU-NH91	0.789	0.737	0.714	0.822	0.727	0.552	0.609	0.538	0.594	0.567	0.955	0.973	0.873	0.831	0.844	0.519	0.501	0.557	0.524	0.545
LU99A	0.37	0.254	0.338	0.346	0.392	0.648	0.467	0.718	0.526	0.568	0.296	0.272	0.253	0.236	0.214	0.33	0.32	0.284	0.342	0.362
LXF-289	1.16	1.11	0.956	1.1	1.09	0.31	0.223	0.19	0.257	0.358	1.05	1.1	1.08	1.05	0.996	0.835	0.791	0.732	0.769	0.8
NCI-H23	0.248	0.214	0.208	0.29	0.205	0.884	0.789	0.782	0.858	0.749	0.4	0.31	0.281	0.28	0.24	0.535	0.568	0.418	0.466	0.512
NCI-H322M	0.538	0.531	0.536	0.647	0.53	0.247	0.252	0.266	0.278	0.27	0.761	0.818	0.779	0.686	0.65	0.431	0.517	0.507	0.509	0.454
NCI-H358	0.552	0.471	0.482	0.768	0.476	0.202	0.167	0.173	0.15	0.175	0.713	0.636	0.593	0.498	0.43	0.32	0.347	0.37	0.332	0.442
NCI-H441	1.29	0.965	1.03	1.1	1.08	0.618	0.688	0.458	0.796	0.407	0.465	0.497	0.499	0.486	0.259	0.495	0.638	0.432	0.539	0.428
NCI-H460	0.616	0.5	0.594	0.538	0.546	0.562	0.483	0.455	0.421	0.569	0.444	0.47	0.253	0.188	0.187	0.371	0.391	0.335	0.361	0.338
NCI-H596	1.12	0.904	1.2	1.12	0.988	0.692	0.537	0.633	0.887	0.594	0.6	0.617	0.623	0.601	0.585	0.386	0.404	0.378	0.382	0.37
NCI-H647	0.465	0.495	0.497	0.507	0.371	0.193	0.206	0.171	0.111	0.179	0.631	0.543	0.53	0.431	0.222	0.441	0.351	0.404	0.528	0.337
NCI-H650	0.946	1.11	0.964	1.01	1.16	0.468	0.493	0.432	0.39	0.455	0.419	0.388	0.37	0.365	0.285	1.02	0.781	0.884	0.884	0.801
NCI-H727	0.683	0.619	0.539	0.64	0.458	0.353	0.36	0.39	0.416	0.348	0.75	0.586	0.862	0.646	0.667	0.269	0.367	0.317	0.367	0.43
